Test [1] concerns the target T1, purine nucleoside phosphorylase (WT PNP) (Escherichia coli, UniProt P0ABP8).
T1 construct: gene deoD; recombinant wild-type E. coli PNP, hexamer
Description: crystal structure ([…] Å) and isothermal titration calorimetry. It counts as binding. In general terms: ITC needs no label: the signal is the heat of the interaction.

The target in test [2] is T2, xanthine oxidase (XO) (Bos taurus, UniProt P80457). As to the kind of experiment: isothermal titration calorimetry (estimate only); weak substrate in oxidation assay. It is filed as binding. Set-up: gene XDH; commercial XO from bovine milk. An excerpt: isothermal titration calorimetry (estimate only); weak substrate in oxidation assay on xanthine oxidase (XO) | the endo- and exothermic processes were again observed.
T2 sequence (P80457 2-1332): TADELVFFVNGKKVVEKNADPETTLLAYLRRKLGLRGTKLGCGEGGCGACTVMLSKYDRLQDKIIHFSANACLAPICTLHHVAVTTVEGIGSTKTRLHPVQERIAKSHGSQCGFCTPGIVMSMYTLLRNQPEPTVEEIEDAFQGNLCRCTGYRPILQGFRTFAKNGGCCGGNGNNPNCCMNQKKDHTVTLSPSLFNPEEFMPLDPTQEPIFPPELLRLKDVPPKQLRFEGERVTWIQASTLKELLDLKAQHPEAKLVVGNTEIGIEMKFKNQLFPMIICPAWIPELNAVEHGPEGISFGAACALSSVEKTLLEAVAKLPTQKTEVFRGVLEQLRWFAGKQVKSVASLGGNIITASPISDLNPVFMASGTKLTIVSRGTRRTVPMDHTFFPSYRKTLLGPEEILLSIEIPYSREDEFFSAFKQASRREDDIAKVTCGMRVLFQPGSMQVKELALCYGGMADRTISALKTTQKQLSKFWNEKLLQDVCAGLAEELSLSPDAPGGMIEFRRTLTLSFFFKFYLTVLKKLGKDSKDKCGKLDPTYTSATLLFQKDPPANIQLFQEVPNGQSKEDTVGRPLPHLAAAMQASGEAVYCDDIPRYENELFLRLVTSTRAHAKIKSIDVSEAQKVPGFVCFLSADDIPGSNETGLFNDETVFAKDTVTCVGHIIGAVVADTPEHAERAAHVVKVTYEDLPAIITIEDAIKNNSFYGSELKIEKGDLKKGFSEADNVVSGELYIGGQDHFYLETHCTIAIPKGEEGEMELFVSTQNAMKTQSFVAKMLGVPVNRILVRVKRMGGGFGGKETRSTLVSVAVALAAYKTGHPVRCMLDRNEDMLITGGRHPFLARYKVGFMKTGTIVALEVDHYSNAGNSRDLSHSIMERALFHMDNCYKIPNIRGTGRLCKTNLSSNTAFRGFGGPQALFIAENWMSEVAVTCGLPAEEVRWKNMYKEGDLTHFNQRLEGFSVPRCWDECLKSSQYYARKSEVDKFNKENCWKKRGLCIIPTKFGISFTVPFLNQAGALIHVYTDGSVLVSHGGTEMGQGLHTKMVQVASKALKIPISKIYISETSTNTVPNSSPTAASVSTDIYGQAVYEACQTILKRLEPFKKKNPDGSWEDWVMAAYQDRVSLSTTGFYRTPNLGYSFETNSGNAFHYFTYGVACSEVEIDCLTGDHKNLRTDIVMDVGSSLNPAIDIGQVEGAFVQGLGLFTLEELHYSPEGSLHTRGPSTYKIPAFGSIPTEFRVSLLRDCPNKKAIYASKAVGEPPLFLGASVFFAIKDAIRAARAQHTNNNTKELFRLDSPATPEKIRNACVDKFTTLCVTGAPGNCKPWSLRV

The target of test [3] is T2, xanthine oxidase (XO). Description: isothermal titration calorimetry (estimate only); also oxidation kinetics, apparent Km […] at pH […] and […] at pH […]. It is filed as binding. Set-up: gene XDH; commercial XO from bovine milk.
Test [4] has as its target T2, xanthine oxidase (XO). Description: competition with oxidation of I, fluorimetric assay, pH […]. It counts as biochemical. Set-up: gene XDH; commercial XO from bovine milk (purified enzyme).

The term Ki denotes the dissociation constant of the complex between target and ligand, obtained from inhibition or displacement.

T1 sequence (P0ABP8 2-239): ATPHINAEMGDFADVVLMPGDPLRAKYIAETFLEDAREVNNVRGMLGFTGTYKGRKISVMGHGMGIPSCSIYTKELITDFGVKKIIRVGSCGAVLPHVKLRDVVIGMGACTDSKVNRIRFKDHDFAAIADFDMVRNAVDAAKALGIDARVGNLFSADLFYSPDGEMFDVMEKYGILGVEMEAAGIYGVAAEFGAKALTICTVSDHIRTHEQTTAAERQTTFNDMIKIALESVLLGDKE

As to `c1cn2c(n1)ncc1nc[nH]c12` [II, N^2,3-ε2APu], the Kd in test [1] is 36.2 µM; in test [2], about 0.0075 µM.
Turning to `c1cn2cc3nc[nH]c3nc2n1` [I, 1,N^2-ε2APu], the Kd in test [3] is about 0.0022 µM.
Regarding `O=c1[nH]c(=O)c2[nH]cnc2[nH]1` [xanthine], the affinity in test [4], expressed as Ki, was 3 µM.

Source of the values: article PMC11477426, “Interaction of Tri-Cyclic Nucleobase Analogs with Enzymes of Purine Metabolism: Xanthine Oxidase and Purine Nucleoside Phosphorylase” (International Journal of Molecular Sciences, 2024).
